In PubChem BioAssay AID1552 (Sanford-Burnham Center for Chemical Genomics, 2009):
The source made the active and inactive calls. No rule for the calls is given here.

Target: Ubiquitin-conjugating enzyme E2 N (Homo sapiens) (UniProt P61088)
Assay: NMR detection of UBE2N ligand binding – biophysical, purified protein (AID 1552)
Conditions: NMR binding to purified UBE2N

Ubiquitin-conjugating enzyme E2 N (Homo sapiens), sequence (P61088 whole entry, looked up): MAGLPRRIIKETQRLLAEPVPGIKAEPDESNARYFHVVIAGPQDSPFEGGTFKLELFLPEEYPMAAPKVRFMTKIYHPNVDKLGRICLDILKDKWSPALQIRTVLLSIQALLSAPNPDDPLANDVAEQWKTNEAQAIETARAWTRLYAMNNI

Structure (SMILES) | Kd
O=C(NCc1ccco1)c1ccc(=O)[nH]c1 | > 4 mM (inactive)
S=c1[nH]ncn1-c1ccccc1 | > 4 mM (inactive)
O=C1CS/C(=N/S(=O)(=O)c2ccccc2)N1 | > 4 mM (inactive)
O=C(NN1CCOCC1)c1ccccc1F | > 4 mM (inactive)
CN=C(C)c1c(O)n(C)c(=O)n(C)c1=O | > 4 mM (inactive)
CC[C@@]1(O)C[C@H](O)c2c(cc3c(c2O)C(=O)c2c(O)ccc(O)c2C3=O)[C@H]1C(=O)OC | > 4 mM (inactive)
O=S(=O)(N1CCOCC1)n1nnc2ccccc21 | > 4 mM (inactive)
Cc1csc2nc(=O)c3ccccc3n12 | > 4 mM (inactive)
CC(=O)Nc1ccc(NC(C)=O)c(C(F)(F)F)c1 | > 4 mM (inactive)
Oc1ccccc1N=Cc1cccnc1 | > 4 mM (inactive)
O=C(O)CC[N+](=O)[O-] | > 4 mM (inactive)
COc1cccc(C(=O)Nc2c(C)n[nH]c2C)c1 | > 4 mM (inactive)
C[C@@H]1O[C@@H](O[C@H]2CC[C@]3(C=O)C4CC[C@]5(C)[C@@H](C6=CC(=O)OC6)CC[C@]5(O)C4CC[C@]3(O)C2)[C@H](O)[C@H](O)[C@H]1O (some centres not stated) | > 4 mM (inactive)
Cc1ccn(S(=O)(=O)c2ccc(C(C)(C)C)cc2)n1 | > 4 mM (inactive)
O=C(Nc1ccon1)c1csc2c1CCCC2 | > 4 mM (inactive)
Cc1nc2sc3c(c2c(=N)n1N)CC(C)(C)OC3 | > 4 mM (inactive)
O=C(O)C1CSC(c2cc3ccccc3nc2Cl)N1 (configuration not stated) | > 4 mM (inactive)
CC(C)/C(O)=C1/C(=O)O[C@@H](c2ccoc2)[C@]2(C)C(O)[C@@H](O)[C@@]34OC5(C)OC67CC(C)(C(O)[C@]6(O)[C@@H](O)[C@]3(O5)C12)[C@H](CC(=O)O)[C@]74C (some centres not stated) | > 4 mM (inactive)
O=c1c2c(nc3nc(Cc4ccccc4)[nH]n13)CCC2 | > 4 mM (inactive)
O=C(O)c1cncc(-c2ccccc2)c1 | > 4 mM (inactive)
COc1ccc(-c2nnsc2N)cc1 | > 4 mM (inactive)
Cc1c(N=CN2CCOCC2)c(=O)n(C)c(=O)n1C | > 4 mM (inactive)
Cc1nnc(SCc2cccs2)[nH]c1=O | > 4 mM (inactive)
CC(=O)Nc1ccc(S(=O)(=O)N2CCN=C2C)cc1 | > 4 mM (inactive)

Structure (SMILES) | Kd
COC(=O)C[C@@H]1C2(C)C(=O)[C@@H](CC3=C4C=C(OC)O[C@@H](c5ccoc5)[C@]4(C)CCC32)[C@H](O)C1(C)C (some centres not stated) | > 4 mM (inactive)
CCN1C(=O)N(CO)C2C1N(C)C(=O)N2C (configuration not stated) | > 4 mM (inactive)
CCc1noc(C)c1C(=O)N1CCOCC1 | > 4 mM (inactive)
COC(=O)[C@@H]1OC(=O)C2OC23[C@@]1(C)CCC1[C@]2(C)C(C[C@@H](O)[C@]13C)C(C)(C)[C@H](OC(C)=O)C[C@@H]2OC(C)=O (some centres not stated) | > 4 mM (inactive)
O=C(Nc1cccc(Cl)c1)c1ccncc1 | > 4 mM (inactive)
O=C(O)c1c[nH]c2ccccc12 | > 4 mM (inactive)
Cc1ccccc1NC(=O)/C=C\C(N)=O | > 4 mM (inactive)
CC(=O)Nc1ccc(N(C)C(C)=O)cc1 | > 4 mM (inactive)
CC(C)Oc1ccc(NC(N)=O)cc1 | > 4 mM (inactive)
Cc1n[nH]c(=S)n(/N=C/c2ccccc2)c1=O | > 4 mM (inactive)
CC1=NN(c2ccc(N)cc2)C(=O)C1 | > 4 mM (inactive)
CSc1ncc(CO)n1Cc1ccccc1 | > 4 mM (inactive)
CC(=O)C1CC[C@H]2C3CC[C@H]4C[C@H](O)CC[C@]4(C)C3CC[C@]12C (some centres not stated) | > 4 mM (inactive)
O=C(O)Cc1nc(-c2ccncc2)n[nH]1 | > 4 mM (inactive)
C=C1C2CC[C@@]3(C)[C@H](c4ccoc4)OC(=O)C[C@]13O[C@H]1CC(O)C(C)(C)C(CC(=O)OC)[C@@]21C (some centres not stated) | > 4 mM (inactive)
COc1cc(O)c(C)c(O)c1 | > 4 mM (inactive)
CC(=O)CS(=O)(=O)c1ccccc1 | > 4 mM (inactive)
NC(=O)c1ccc(C(N)=O)cc1 | > 4 mM (inactive)
CC(=O)NC(O)C(=O)c1cccs1 (configuration not stated) | > 4 mM (inactive)
CC(C)=CC(=O)Nc1ccccc1Br | > 4 mM (inactive)
c1ccc(CCNc2ncnc3nc[nH]c23)cc1 | > 4 mM (inactive)
O=C(O[C@@H]1Cc2c(O)cc(O)cc2O[C@@H]1c1ccc(O)c(O)c1)c1cc(O)c(O)c(O)c1 | > 4 mM (inactive)
Cc1sc2nc(-c3ccco3)oc(=O)c2c1C | > 4 mM (inactive)
CCC(C)OC1CCS(=O)(=O)C1 (configuration not stated) | > 4 mM (inactive)

Structure (SMILES) | Kd
COC(=O)c1cc(-c2c[nH]c3ccccc23)n[nH]1 | > 4 mM (inactive)
CC(=O)Nn1cc2c(=O)n(C)c(=O)n(C)c2c1 | > 4 mM (inactive)
C=C1C(=O)O[C@@H]2C[C@@]3(C)CCC[C@H](C)C3=C[C@H]12 | > 4 mM (inactive)
NC(=O)c1ccc(NC(=O)c2cccnc2)cc1 | > 4 mM (inactive)
CCN1CCN(c2ncnc3c2nnn3C)CC1 | > 4 mM (inactive)
C[C@]12CC(=O)C3C(CC[C@@H]4C[C@H](O)CC[C@]34C)C1CC[C@]2(O)C(=O)CO (some centres not stated) | > 4 mM (inactive)
CC(=O)Nc1ccc(NC(=O)c2ccncc2)cc1 | > 4 mM (inactive)
O=C(O)CCCCC1SCC2NC(=O)NC21 (configuration not stated) | > 4 mM (inactive)
O=S(=O)(N1CCCCC1)n1nnc2ccccc21 | > 4 mM (inactive)
NCC1COc2ccccc2O1 (configuration not stated) | > 4 mM (inactive)
Clc1ccc(SCCn2cncn2)cc1 | > 4 mM (inactive)
C=CCc1ccc(O)c(OC)c1 | > 4 mM (inactive)
Cc1ccc(-c2nc(-c3cccnc3)no2)c(C)c1 | > 4 mM (inactive)
O=C(O)CN1CCNCC1 | > 4 mM (inactive)
O=c1c(-c2ccccc2)coc2cc(O)cc(O)c12 | > 4 mM (inactive)
O=C(O)CC12CC3CC(CC(O)(C3)C1)C2 | > 4 mM (inactive)
Cc1cc(C)n(-c2ccc(Cl)nn2)n1 | > 4 mM (inactive)
Cc1nn(-c2ccccc2)nc1CN | > 4 mM (inactive)
CC1(C)CC(NC(=O)/C=C/C(=O)O)CC(C)(C)N1 | > 4 mM (inactive)
Cc1occc1C(=O)Nc1nnc(-c2ccncc2)s1 | > 4 mM (inactive)
O=C1NC(=O)/C(=C/c2ccc(O)cc2)N1 | > 4 mM (inactive)
CC(C)=CCC1=C(O)c2ccccc2C(=O)C1=O | > 4 mM (inactive)
NC(=O)Cc1nc2ccccc2[nH]1 | > 4 mM (inactive)
Cc1cc(=O)[nH]c2ccccc12 | > 4 mM (inactive)

Structure (SMILES) | Kd
Cn1c(=O)c2c(ncn2C)n(C)c1=O | > 4 mM (inactive)
CC1=NN2C(=N)/C(=C\c3cccs3)C(=O)N=C2S1 | > 4 mM (inactive)
Cn1c(=O)n(CC(=O)N2CCOCC2)c2ccccc21 | > 4 mM (inactive)
CC12CCC3C(CC3(C)C)C(C)(CCC1=O)O2 (configuration not stated) | > 4 mM (inactive)
O=C(NCc1ccco1)c1nc2ncccn2n1 | > 4 mM (inactive)
Cc1cc(C(=O)NC(C)c2ccncc2)cs1 (configuration not stated) | > 4 mM (inactive)
O=C(Nc1cnccn1)c1cccnc1 | > 4 mM (inactive)
Cc1csc2nc(N)nn12 | > 4 mM (inactive)
CC1(C)Cc2cccc(C(=O)O)c2O1 | > 4 mM (inactive)
CC(C)CC(=O)NC1CCSC1=O (configuration not stated) | > 4 mM (inactive)
NC(=O)CSc1nnnn1-c1ccccc1 | > 4 mM (inactive)
Nc1nc(SCc2ccc3c(c2)OCCO3)n[nH]1 | > 4 mM (inactive)
CC(=O)OC1CCC2(C)C3CC(=O)C4(C)C(CC5OC6(CCC(C)CO6)[C@@H](C)C54)C3CC[C@H]2C1 (some centres not stated) | > 4 mM (inactive)
O=C1CCCc2c1nc(-c1ccccc1)n2O | > 4 mM (inactive)
CC(=O)Nc1cnn(-c2ccccc2)c(=O)c1Cl | > 4 mM (inactive)
O=C1NC(=O)C(Cc2ccccc2)C(=O)N1 | > 4 mM (inactive)
O=C(Nc1ccc(O)cc1)N1CCOCC1 | > 4 mM (inactive)
NCCCCN=C(N)N | > 4 mM (inactive)
NC(=O)/C=C/C(=O)Nc1ccccc1 | > 4 mM (inactive)
CCC(=O)OC1[C@@H]2CC3=C4CC(=O)O[C@@H](c5ccoc5)[C@]4(C)CCC3C(C)(C2=O)[C@@H](CC(=O)OC)C1(C)C (some centres not stated) | > 4 mM (inactive)
c1ccc(-c2nnc3sc(-c4ccncc4)nn23)cc1 | > 4 mM (inactive)
Cn1cnnc1SCC(=O)Nc1ccccc1 | > 4 mM (inactive)
Oc1ccc(-n2ccnc2)cc1 | > 4 mM (inactive)
N/N=C/c1cccnc1 | > 4 mM (inactive)

Structure (SMILES) | Kd
Nc1ncnc2c1ncn2C1O[C@H](COP(=O)(O)O)[C@@H](O)[C@H]1O (some centres not stated) | > 4 mM (inactive)
C/C=C(\C)c1nnc(NC(=O)c2ccco2)s1 | > 4 mM (inactive)
CC(=O)c1c(O)cc(O)cc1O | > 4 mM (inactive)
COc1cccc(/C=C/C(=O)O)c1C(C)C | > 4 mM (inactive)
COC(=O)CSc1nnc(-c2ccc(C(=O)O)cc2)o1 | > 4 mM (inactive)
NCc1ccc2sccc2c1 | > 4 mM (inactive)
Cc1noc(C)c1C(=O)N1CCc2ccccc2C1 | > 4 mM (inactive)
Cc1cc(C(F)(F)F)nn1CC(N)=O | > 4 mM (inactive)
CSc1ccn(CCC(=O)O)c(=O)n1 | > 4 mM (inactive)
COC(=O)[C@H]1[C@H]2C[C@H]3c4[nH]c5ccccc5c4CCN3C[C@H]2CC[C@@H]1O | > 4 mM (inactive)
O=C(O)c1cccc2c1OCC2 | > 4 mM (inactive)
O=C1CSC(=Nc2ccc(F)cc2)N1 | > 4 mM (inactive)
COc1ccc2c3c([nH]c2c1)C(C)=NCC3 | > 4 mM (inactive)
COc1cc(/C=C2/NC(=S)NC2=O)cc(Cl)c1O | > 4 mM (inactive)
O=C(O)C1CCN(c2ccc(C(F)(F)F)cn2)CC1 | > 4 mM (inactive)
O=C(Nc1ccc2c(c1)OCO2)c1c(F)cccc1F | > 4 mM (inactive)
Cc1ccc(SCCN2C(=O)NC(C)(C)C2=O)cc1 | > 4 mM (inactive)
S=C(c1cccnc1)N1CCOCC1 | > 4 mM (inactive)
Nc1cc(=O)[nH]c(=O)n1Cc1ccco1 | > 4 mM (inactive)
CN1CCC(NC(=O)c2c(F)cccc2Cl)CC1 | > 4 mM (inactive)
CC1(C)Cc2cccc(CO)c2O1 | > 4 mM (inactive)
